# Experimental data: patent publication US10729723B2, “Method for inducing cell reprogramming, and method for producing pluripotent cells” (NATIONAL UNIVERSITY CORPORATION KUMAMOTO UNIVERSITY, priority 2014, dated 2020)
# Columns and labels:
# HDF cells [1] = experiment: influence of endocytosis inhibitor on cell-cluster formation by Lactobacillus 70S ribosome fraction; type: cell-based, Human; conditions: 70S ribosome fraction 0.5 μg/50 μl/well, HDF cells 20,000 cells, cultured 2 days
# Procedure: (§1) In the presence of an endocytosis inhibitor shown in the following Table, the cell-cluster forming ability was examined using the Lactobacillus 70S ribosome fraction prepared in Example 6. The 70S ribosome fraction was placed into a 96-well plate (0.5 μg/50 μl/well), HDF cells (20,000 cells/100 μl) were added, and each inhibitor (50 μl) was added. The cells were cultured in a CO2 incubator for 2 days, and the number of the formed cell-clusters was measured. The inhibitor was used with the concentration shown in Table being the standard concentration (concentration “5” in FIG. 9). Accordingly, for example, in the case of CP, the concentration “5” is 10 μM, and the concentration “10” is 20 μM. In addition, the MTT assay (measurement of cell death by colorimetric method) was conducted.
# HDF cells [2] = experiment: MTT assay (measurement of cell death by colorimetric method); type: cell-based; conditions: HDF cells with 70S ribosome fraction, 2 days
# Procedure: as §1
Molecule,number of the formed cell-clusters in the presence of inhibitor (HDF cells [1]),"toxicity of inhibitor, considered cause of decreased cell-cluster number (MTT assay, cell survival ratio) (HDF cells [2])"
"CN(C)CCCN1c2ccccc2Sc2ccc(Cl)cc21 [CP, Chlorpromazine]",decreased,–
"C[C@@H]1[C@H](O)[C@@H](C)/C=C/C=C/CC/C=C/C=C/C=C/C=C/C(O[C@H]2O[C@H](C)[C@@H](O)[C@H](N)[C@@H]2O)CC2O[C@](O)(CC(O)C(O)CCC(O)CC(O)CC(O)CC(=O)O[C@H]1C)CC(O)C2C(=O)O (stereo partly shown) [NY, Nystatin]",decreased,toxicity
Methyl-β-cyclodextrin [MC],increased concentration-dependently,–
